From US20200048611A1, “ENGINEERED PLATFORM FOR CONNECTED MICROPATTERNED CARDIAC TISSUES” (Wisconsin Alumni Research Foundation, priority 2018, published 2020)

Test system: patterned hPSC-CMs
Test: beta-adrenergic stimulation of micropatterned hPSC-CMs with isoproterenol (contraction, digital image correlation)
Type: cell-based, human
Settings: patterned CMs on 10 kPa PDMS, 1 μM isoproterenol
Description: In this Example, cardiomyocytes were differentiated from the 19-9-11 iPSC line and purified using lactate media. 10 kPa PDMS substrates mimicking the elasticity of the healthy myocardium were made by blending together commercially available Sylgard 184 and 527. […] Statistical analyses were done using one-way ANOVA with post hoc Tukey test.

For `CC(C)NCC(O)c1ccc(O)c(O)c1` (centres unmarked) [isoproterenol], the rate of contraction was “increase in the rate of contraction” and the “amplitude of contraction (x-displacement)” value (versus baseline normal contraction) was “amplitude of contraction also increased from baseline”.
